Test results taken from US12685776B2, “Arginine methyltransferase 5 (PRMT5) degraders and uses thereof” (DANA-FARBER CANCER INSTITUTE, INC., priority 2020, dated 2026).
Blank lines part the entries; values can stand above or below the molecule they belong to.

Legend:
[1] = target: PRMT5/MEP50 (Homo sapiens, UniProt O14744); assay: PRMT5 activity inhibition, AlphaLISA assay; format: biochemical; conditions: PRMT5/MEP50 with biotinylated histone tail, FIG. 2A
Experimental: PMRT5 inhibition in HEK 293 WT cells was determined by AlphaLISA® assay (PerkinElmer®) according to manufacturer's instructions. The biotinylated Histone 4 […] histone tail was incubated with PRMT5/MEP50 and inventive bifunctional compounds 1-9, cereblon-based bifunctional compound PRMT5-58, PRMT5 inhibitors EPZ15666 and LLY-283 and RPN13 inhibitor RA190. Then the H4R3symetric Me2 antibody coated beads together with streptavidin beads were incubated together. Assays were processed by EnVision® multimode plate reader (PerkinElmer®).

[2] = tested on: A427 cells; assay: Cell-proliferation assay (CellTiter-Glo 2.0) in A427 cells; format: cell-based; conditions: FIG. 3A
Experimental: (§1) Inventive bifunctional compounds 1 and 2 were tested in the A427 (anon-small cell lung cancer (NSCLC) cell line) and H661(human lung large cell carcinoma) cells. CellTiter-Glo® 2.0 Cell Viability Assay (Promega™) was used to measure cell growth (proliferation) inhibition and to report the ATP level reduction in cells after treatment with the bifunctional compounds.

[3] = tested on: H661 cells; assay: Cell-proliferation assay (CellTiter-Glo 2.0) in H661 cells; format: cell-based, human; conditions: FIG. 3B
Experimental: as §1

[4] = tested on: HL60 cells; assay: Immunoblot analysis of HL60 cells, blotted targets; format: cell-based; conditions: FIG. 4A
Experimental: FIG. 4A is an image showing an immunoblot analysis of HL60 cells treated with different concentrations (μM) of inventive bifunctional compound 13 for 24 hours and 48 hours.
(§2) Protein lysates were subjected to immunoblot analysis using anti-Rpn13, anti-betaActin, anti-H4R3Me2s, anti-H3, anti-RPN1 and anti-RPN10.

[5] = target: T1, PRMT5 (Homo sapiens, UniProt O14744); assay: Immunoblot analysis of HL60 cells, PRMT5 degradation; format: cell-based; conditions: 24 hours, FIG. 4B
T1 construct: endogenous in cells; host or cells: HL60
T1 sequence (O14744 whole entry): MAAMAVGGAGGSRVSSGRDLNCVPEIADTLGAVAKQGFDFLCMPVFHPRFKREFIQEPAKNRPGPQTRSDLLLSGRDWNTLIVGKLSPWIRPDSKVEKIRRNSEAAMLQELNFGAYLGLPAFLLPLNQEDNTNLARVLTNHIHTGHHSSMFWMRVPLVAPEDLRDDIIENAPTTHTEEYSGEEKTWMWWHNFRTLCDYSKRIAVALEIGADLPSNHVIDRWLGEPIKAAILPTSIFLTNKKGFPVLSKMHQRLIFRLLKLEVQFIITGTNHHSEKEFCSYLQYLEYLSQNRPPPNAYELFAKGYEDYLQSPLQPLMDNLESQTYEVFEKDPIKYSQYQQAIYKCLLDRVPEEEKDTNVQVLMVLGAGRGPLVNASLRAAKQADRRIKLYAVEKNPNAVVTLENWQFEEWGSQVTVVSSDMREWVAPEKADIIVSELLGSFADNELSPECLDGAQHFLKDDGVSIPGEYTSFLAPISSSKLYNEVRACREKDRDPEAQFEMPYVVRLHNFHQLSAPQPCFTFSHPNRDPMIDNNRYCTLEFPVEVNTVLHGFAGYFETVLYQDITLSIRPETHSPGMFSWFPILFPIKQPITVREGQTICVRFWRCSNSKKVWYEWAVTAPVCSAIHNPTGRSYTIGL
T1 sequence (Q9BQA1 whole entry partner): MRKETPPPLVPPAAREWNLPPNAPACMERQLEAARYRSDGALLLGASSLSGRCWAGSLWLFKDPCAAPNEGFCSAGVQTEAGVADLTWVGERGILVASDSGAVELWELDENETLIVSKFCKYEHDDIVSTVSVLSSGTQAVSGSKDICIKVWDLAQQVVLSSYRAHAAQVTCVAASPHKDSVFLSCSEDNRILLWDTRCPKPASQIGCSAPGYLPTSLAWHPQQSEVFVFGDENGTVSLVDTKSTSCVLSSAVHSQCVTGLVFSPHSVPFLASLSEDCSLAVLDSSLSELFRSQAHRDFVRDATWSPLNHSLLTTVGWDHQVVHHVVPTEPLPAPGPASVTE
Experimental: (§3) FIG. 4B is an image showing an immunoblot analysis of HL60 cells treated with different concentrations (μM) of inventive bifunctional compound 14 for 24 hours.
as §2

[6] = target: T2, RPN13 (Homo sapiens, UniProt Q16186); assay: Immunoblot analysis of HL60 cells, RPN13 degradation; format: cell-based; conditions: 24 hours, FIG. 4B
T2 construct: endogenous in cells; host or cells: HL60
T2 sequence (Q16186 whole entry): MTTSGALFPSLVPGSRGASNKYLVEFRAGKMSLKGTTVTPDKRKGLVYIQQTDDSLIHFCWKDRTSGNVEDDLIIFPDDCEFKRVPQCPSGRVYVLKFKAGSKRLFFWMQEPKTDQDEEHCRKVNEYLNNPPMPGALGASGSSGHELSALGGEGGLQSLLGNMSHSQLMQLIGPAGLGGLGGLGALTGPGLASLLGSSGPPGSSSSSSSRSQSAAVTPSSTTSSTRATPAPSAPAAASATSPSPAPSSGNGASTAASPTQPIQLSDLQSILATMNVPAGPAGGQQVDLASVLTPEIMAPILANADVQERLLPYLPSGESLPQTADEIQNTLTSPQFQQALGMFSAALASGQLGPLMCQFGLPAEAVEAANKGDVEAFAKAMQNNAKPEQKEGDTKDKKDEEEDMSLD
Experimental: as §3, §2

PRMT5/MEP50, sequence (O14744 whole entry): as the sequence (O14744 whole entry) above
PRMT5/MEP50, sequence (Q9BQA1 whole entry partner): as the sequence (Q9BQA1 whole entry partner) above

- PRMT5 activity inhibition [1]: successfully inhibited PRMT5 function
Structure (SMILES): O=C(CCCC(=O)N[C@@H](Cc1ccccc1)C(=O)N1C/C(=C\c2ccc(Cl)c(Cl)c2)C(=O)/C(=C/c2ccc(Cl)c(Cl)c2)C1)NCCCC(=O)N1CC(Nc2cc(C(=O)NC[C@H](O)CN3CCc4ccccc4C3)ncn2)C1 [Compound 1, N1-((S)-1-(3,5-bis((E)-3,4-dichlorobenzylidene)-4-oxopiperidin-1-yl)-1-oxo-3-phenylpropan-2-yl)-N5-(4-(3-((6-(((S)-3-(3,4-dihydroisoquinolin-2(1H)-yl)-2-hydroxypropyl)carbamoyl)pyrimidin-4-yl)amino)azetidin-1-yl)-4-oxobutyl)glutaramide]
- inhibition of cell growth (proliferation) [2]: effectively inhibited growth
- inhibition of cell growth (proliferation) [3]: effectively inhibited growth

Structure (SMILES): O=C(CNc1cc(C(=O)NC[C@H](O)CN2CCc3ccccc3C2)ncn1)NCCCCCCC(=O)N[C@@H](Cc1ccccc1)C(=O)N1C/C(=C\c2ccc([N+](=O)[O-])cc2)C(=O)/C(=C/c2ccc([N+](=O)[O-])cc2)C1 [Compound 13, 6-((2-((7-(((S)-1-(3,5-bis((E)-4-nitrobenzylidene)-4-oxopiperidin-1-yl)-1-oxo-3-phenylpropan-2-yl)amino)-7-oxoheptyl)amino)-2-oxoethyl)amino)-N-((S)-3-(3,4-dihydroisoquinolin-2(1H)-yl)-2-hydroxypropyl)pyrimidine-4-carboxamide]
- degradation of blotted targets ([4]; 24 and 48 hours): minimum degradation
- concentration tolerated in the cell [4]: up to 10 μM

- concentration resulting in degradation of PRMT5 [5]: 1 µM
- concentration with complete loss of PRMT5 [5]: 3 µM
- concentration resulting in degradation of RPN13 [6]: 1 µM
- concentration with complete loss of RPN13 [6]: 3 µM
Structure (SMILES): O=C(CCCC(=O)N1CCC(Nc2cc(C(=O)NC[C@@H](O)CN3CCc4ccccc4C3)ncn2)CC1)N[C@@H](Cc1ccccc1)C(=O)N1C/C(=C\c2ccc(Cl)c(Cl)c2)C(=O)/C(=C/c2ccc(Cl)c(Cl)c2)C1 [Compound 14, 6-((1-(5-(((S)-1-(3,5-bis((E)-3,4-dichlorobenzylidene)-4-oxopiperidin-1-yl)-1-oxo-3-phenylpropan-2-yl)amino)-5-oxopentanoyl)piperidin-4-yl)amino)-N-((R)-3-(3,4-dihydroisoquinolin-2(1H)-yl)-2-hydroxypropyl)pyrimidine-4-carboxamide]
